Data as given in patent US4632925A, “N-substituted diphenylpiperidines and antiobesity use thereof” (Hoffmann-La Roche Inc., priority 1985, dated 1986).
Where a name gives a salt, the structure may show the parent alone.

Assays:
[1] = system: isolated perfused rat pancreas (insulin secretion); experiment: Insulin-secretory activity in the isolated perfused rat pancreas; set-up: species or system rat (female Charles River); conditions: 16.7 mM glucose, index > 1 indicates suppression of insulin secretion
Method: DETERMINATION OF INSULIN-SECRETORY ACTIVITY IN THE ISOLATED PERFUSED RAT PANCREAS
Pancreases were obtained from young adult female Charles River rats weighing from 200-300 g. The animals were anesthesized with sodium pentobarbitol (45 mg/kg), injected intraperitoneally, and the pancreas with its intact vasculature was removed and connected to an extracorporeal perfusion apparatus.
The basic perfusion solution contained: 133 mM NaCl, 4.4 mM KCl, 2.5 mM MgSO4, 2.4 mM Ca gluconate, 1.5 mM KH2 PO4, 29.4 mM HaHCO3, 4% dextran and 0.2% bovine serum albumin and glucose as discussed below. The perfusion flow rate was kept constant at 4 ml/min. After a 15-20 minute equilibration period, the experimental protocol was begun. The pancreatic effluent was collected in either one or four-minute fractions.
The perfusion was run in the following sequence for each test compounds:
30 min 16.7 mM glucose--internal control
30 min 16.7 mM glucose and test compound
10 min 16.7 mM glucose--to check pancreas viability
The perfusion for the nontreated pancreas preparation was run as above, except that the test compound was omitted and replaced with perfusion solution.
Test compounds were dissolved in 90% ethanol or dimethylsulfoxide to a concentration of 25 mM and then diluted in the perfusion buffer to the desired concentration. The perfusion effluent was collected in one or four minute fractions--the samples were checked immediately, aliquoted for submission to radioimmunoassay and stored at -20° C. until the time of assay. The radioimmunoassay of insulin was carried out by a back-titration method using a pure rat insulin standard.
To assess the inhibitory activity of the test compounds, an inhibition index was calculated. The inhibition index is derived by comparing the insulin secretion response from treated versus nontreated pancreas preparations. For each preparation, a ratio of insulin secretion was calculated from the area under the insulin secretion curve of the first pulse of 16.7 mM glucose divided by the area under the curve of the second pulse of 16.7 mM glucose containing compound.

[2] = Glucose clearance: acute in vivo model; set-up: species or system Sprague-Dawley rats; conditions: Rattus norvegicus, po, 0.5 h; 100 mg/kg intragastric, 30 min before i.p. glucose 1 g/kg; circulating glucose at 30 min; >100% indicates activity
Method: GLUCOSE CLEARANCE: ACUTE IN VIVO MODEL
The rationale for this test is that compounds which suppress insulin secretion should increase circulating glucose levels above those observed in controls following the administration of a high glucose load. Sprague-Dawley rats which range in weight from 150 to 180 grams after an overnight fast of 16 or 18 hours are given the test compound (100 mg/kg body weight) by intragastric administration 30 minutes before the intraperitoneal administration of glucose (1 g/kg body weight). Circulating glucose levels are determined immediately before glucose administration and 30, 60 and 90 minutes after glucose administration. Active compounds increase circulating glucose levels compared to controls. Since glucose levels peak at 30 minutes following glucose administration, the difference in circulating glucose levels between controls and treated rats at 30 minutes is used as an index of activity. The data are expressed as percent of control.

[3] = Antiobesity effects in obese Zucker rats; type: in vivo, genetically obese male Zucker rats; conditions: 14 days; for Relative Body Weight Gain Index: gain / days / dose (g/kg)
Method: ANTIOBESITY EFFECTS IN OBESE ZUCKER RATS
Genetically Obese Male Zucker rats were kept in temperature (22° C.) and light (12 hours light-dark cycle) regulated rooms. One week prior to the start of the experiment, the rats were transferred to individual wirebottomed cages and trained to eat a powdered chow diet (Ralston Purina Co., St. Louis, Mo.) ad libitum.
At the beginning of the experiment, the control group contributed to eat the chow diet and the experimental animals were given a chow diet containing drug. The amount of drug administered was calculated from the food intake per kg body weight for each experimental group. The age of the rats at the start of the drug treatment was two to three months. The period of treatment was 28 to 64 days. Food intake and body weights were recorded periodically (once each day to twice a week) throughout the duration of the study. Plasma samples for insulin and glucose determinations were taken from clipped tails. Carcass composition was determined at the end of the treatment period and, or comparative purposes, prior to the start of treatment.

[4] = Antiobesity effects in obese Zucker rats; type: in vivo, genetically obese male Zucker rats; conditions: 46 mg/kg, 14 days; gain / days / dose (g/kg)

| SMILES | Perfused Pancreas Inhibition Index ([1]; 100 μM) | response vs control in vivo at 100 mg/kg [2] [%] | Perfused Pancreas Inhibition Index ([1]; 50 μM) | other results |
| --- | --- | --- | --- | --- |
| O=C(CCCc1cccnc1)N1CCC(C(c2ccccc2)c2ccccc2)CC1 [Example 10, 4-diphenylmethyl-1-[1-oxo-4-(3-pyridinyl)butyl]piperidine, 0.1 molar ethylacetate solvate] | 6.0 | 105 |  |  |
| O=C(CCCc1cccnc1)N1CCC(C=C(c2ccccc2)c2ccccc2)CC1 [Example 11, 4-(2,2-diphenylethenyl)-1-[1-oxo-4-(3-pyridinyl)butyl]piperidine] |  | 99 | 7.6 |  |
| O=C(CCCc1cccnc1)N1CCC(CC(c2ccccc2)c2ccccc2)CC1 [Example 14, 4-(2,2-diphenylethyl)-1-[1-oxo-4-(3-pyridinyl)butyl]piperidine] | 14.1 | 109 |  |  |
| c1ccc(C(c2ccccc2)C2CCN(CCCCc3cccnc3)CC2)cc1 [Example 16, 3-[4-[4-(Diphenylmethyl)-1-piperidinyl]butyl]pyridine (1:1)-(Z)-2-butenedioate salt] | 5.3 | 120 |  |  |
| C(=C(c1ccccc1)c1ccccc1)C1CCN(CCCCc2cccnc2)CC1 [Example 17, 3-[4-[4-(2,2-Diphenylethenyl)-1-piperidinyl]butyl]pyridine] | 1.7 | 101 |  |  |
| Fc1ccc(C(=CC2CCN(CCCCc3cccnc3)CC2)c2ccc(F)cc2)cc1 [Example 18, 3-[4-[4-[2,2-bis(4-fluorophenyl)ethenyl]-1-piperidinyl]butyl]pyridine (1:1)-(E)-2-butenedioate salt] | 0.6 | 113 |  |  |
| C(=C(c1ccccc1)c1ccccc1)C1CCN(CCCCCc2cccnc2)CC1 [Example 19, 3-[5-[4-(2,2-Diphenylethenyl)-1-piperidinyl]pentyl]pyridine (1:1)-(E)-2-butenedioate salt] | 24.1 | 97 |  |  |
| c1ccc(C(CC2CCN(CCCCc3cccnc3)CC2)c2ccccc2)cc1 [Example 20, 3-[4-[4-(2,2-Diphenylethyl)-1-piperidinyl]butyl]pyridine] | 19.1 | 106 |  |  |
| Fc1ccc(C(CC2CCN(CCCCc3cccnc3)CC2)c2ccc(F)cc2)cc1 [Example 21, 3-[4-[4-[2,2-Bis(4-fluorophenyl)ethyl]-1-piperidinyl]butyl]pyridine (1:1)-(E)-2-butenedioate salt] | 16.3 | 136 |  |  |
| C(=C(c1ccccc1)c1ccccc1)C1CCN(CCCc2cccnc2)CC1 [Example 22, 3-[3-[4-(2,2-Diphenylethenyl)-1-piperidinyl]propyl]pyridine (1:1)-(E)-2-butenedioate salt] | 10.1 | 101 |  |  |
| C(=C(c1ccccc1)c1ccccc1)C1CCN(CCCCCCc2cccnc2)CC1 [Example 23, 3-[6-[4-(2,2-diphenylethenyl)-1-piperidinyl]hexyl]pyridine (1:1)-(E)-2-butenedioate salt] | 2.6 | 144 |  |  |
| C(=C(c1ccccc1)c1ccccc1)C1CCN(CCCCCCCc2cccnc2)CC1 [Example 24, 3-[7-[4-(2,2-Diphenylethenyl)-1-piperidinyl]heptyl]pyridine (1:1)-(E)-2-butenedioate salt hemihydrate] |  | 118 | 35 |  |
| Fc1ccc(C(CC2CCN(CCCCCCc3cccnc3)CC2)c2ccc(F)cc2)cc1 [Example 26, 3-[6-[4-[2,2-Bis(4-fluorophenyl)ethyl]-1-piperidinyl]hexyl]pyridine (1:1)-(E)-2-butenedioate salt] |  | 125 | 2.0 |  |
| c1ccc(C(CC2CCN(CCCCCCCCc3cccnc3)CC2)c2ccccc2)cc1 [Example 27, 3-[8-[4-(2,2-Diphenylethyl)-1-piperidinyl]octyl]pyridine] |  |  |  | Relative Body Weight Gain Index ([3]; 58 mg/kg): 94; Body Weight Gain (treated minus control) ([3]; 58 mg/kg, marked *): -76 g; Food Intake ([3]; 58 mg/kg, marked *): 70 % of control |
| C(=C(c1ccccc1)c1ccccc1)C1CCN(CCCCc2cncnc2)CC1 [Example 28, 5-[4-[4-(2,2-diphenylethenyl)-1-piperidinyl]butyl]pyrimidine (1:1)-(E)-2-butenedioate salt] | 3.0 | 147 |  |  |
| C(=C(c1ccccc1)c1ccccc1)C1CCN(CCCCCCc2cncnc2)CC1 [Example 29, 5-[6-[4-(2,2-Diphenylethenyl)-1-piperidinyl]hexyl]pyrimidine] | 10.4 | 104 |  |  |
| C(=C(c1ccccc1)c1ccccc1)C1CCN(CCCCCCCCCc2cccnc2)CC1 [Example 31, 3-[9-[4-(2,2-Diphenylethenyl)-1-piperidinyl]nonyl]pyridine] |  | 107 | 2.7 | Relative Body Weight Gain Index ([3]; 41 mg/kg): 61; Body Weight Gain (treated minus control) ([3]; 41 mg/kg, marked *): -35 g; Food Intake ([3]; 41 mg/kg, marked *): 82 % of control |
| C(=C(c1ccccc1)c1ccccc1)C1CCN(CCCCCCCCCCc2cccnc2)CC1 [Example 32, 3-[10-[4-(2,2-Diphenylethenyl)-1-piperidinyl]decyl]pyridine] |  | 100 |  | Food Intake ([3]; 46 mg/kg): 91 % of control; Body Weight Gain (treated minus control) ([3]; 46 mg/kg, marked *): -46 g; Relative Body Weight Gain Index [4]: 71 |
| O=C(CCCCCn1ccnc1)N1CCC(C=C(c2ccccc2)c2ccccc2)CC1 [Example 33, 4-(2,2-Diphenylethenyl)-1-[1-oxo-6-(1H-imidazo-1-yl)hexyl]piperidine] |  | 120 | 2.5 |  |
| C(=C(c1ccccc1)c1ccccc1)C1CCN(CCCCCCn2ccnc2)CC1 [Example 34, 1-[6-[4-(2,2-Diphenylethenyl)-1-piperidinyl]hexyl]-1H-imidazole] |  | 101 | 1.1 |  |
